The text below walks through data of PubChem BioAssay (NCI).

“And” between values parts separate entries of the source, which are not always exact repeats. Identical values can stand only once.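 Assay format: 96-well plates, 48-hour exposure. GI50: concentration for 50% inhibition of growth. TGI: concentration producing complete growth inhibition.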 A value given as a limit tells only on which side of the number the result lay.

Test in all cases: NCI anticancer screen, dose series, 48 h
Experiment [1] concerns NCI-H460 lung.
For experiment [2], the system named is SK-MEL-2 melanoma.
Experiment [3] concerns SW-620 colon.
The test system of experiment [4] is SNB-19 CNS.
Experiment [5] has as its system HOP-62 NSCLC.
In experiment [6] the test system is SK-MEL-28 melanoma.
Experiment [7] concerns K-562 leukemia.
In experiment [8] the test system is EKVX NSCLC.
Experiment [9] concerns HCT-15 colon.
Experiment [10] has as its system MDA-MB-435.

On to `Cc1ccccc1NC(=O)N/C(N)=N/c1nc(-c2cccc([N+](=O)[O-])c2)cs1`, for which the GI50 is 3.18 µM in experiment [1]; 3.21 µM in experiment [2]; 2.3 µM in [3]; 3.29 µM in experiment [4]; 1.92 µM in [5]; 2.55 µM in experiment [6]. For the same molecule, the GI50 in [7] was 0.555 µM; in experiment [8], 1.94 µM; in experiment [9], 1.56 µM; in experiment [10], 0.505 µM. Moreover, the TGI is 23.1 µM in experiment [1]; 17.3 µM in experiment [2]; above 100 µM in experiment [3]; 15.8 µM in [4]; 7.47 µM in experiment [5]; above 100 µM in [6]. Moreover, the TGI was above 100 µM in experiment [7], above 100 µM in experiment [8], 34.6 µM in experiment [9] and 4.51 µM in [10].
Consider `O=c1c2c(nc3n1CCS3)[nH]c1ccccc12`, for which the GI50 was above 100 µM in [1]; above 100 µM in [2]; above 100 µM in [3]; above 100 µM in experiment [4]; above 100 µM in experiment [5]; 90.3 µM in [6]. Moreover, the GI50 in experiment [7], in experiment [8], in experiment [9] and in [10] was above 100 µM throughout. Further, the TGI in [1], in experiment [2], in experiment [3], in experiment [4], in [5] and in experiment [6] was above 100 µM in each case. Also, the TGI in experiment [7], in experiment [8], in [9] and in experiment [10] was above 100 µM each time.
For `Cn1ccnc1CC(C)(O)c1ccccc1` (stereo not given), the TGI in experiment [1], in experiment [2], in experiment [3], in experiment [4], in experiment [5] and in [6] was above 100 µM throughout. Further, the TGI in experiment [7], in experiment [8], in experiment [9] and in experiment [10] was above 100 µM throughout.
As to `CC(=O)N[C@H]1C=C[C@@H]2/C=C(C)/C=C/[C@@H](C)[C@H]([C@H](C)[C@H](O)[C@@H](C)NC(C)=O)OC(=O)/C=C/C=C(C)\C=C\[C@]2(C)C1`, the GI50 in experiment [1] was 0.0045 µM; in [2] it was 5.11 µM; in [3], 0.0178 µM and 0.0045 µM; in experiment [4], 0.256 µM and 0.072 µM; in experiment [6], 0.0306 µM and 0.00647 µM; in experiment [7], 0.0307 µM and 0.00538 µM. For the same molecule, the GI50 was 0.0361 µM and 0.00939 µM in experiment [9]; 0.00823 µM in experiment [10]. In addition, the TGI in [1] is above 45 µM; in experiment [2], 17.9 µM; in experiment [3], 4.65 µM and > 45 µM; in experiment [4], 4.65 µM and > 45 µM; in [5], 4.65 µM and > 45 µM; in experiment [6] it was 4.65 µM and > 45 µM. The TGI was 4.65 µM and > 45 µM in experiment [7]; 4.65 µM and > 45 µM in experiment [8]; 4.65 µM and > 45 µM in experiment [9]; 4.65 µM in experiment [10].
With `CCN(CC)CCCC(C)Nc1c2ccc(Cl)cc2nc2ccc(OC)cc12` (stereo not given), the GI50 in experiment [1] is 1.3 µM; in experiment [3], 1.18 µM; in experiment [4] it was 1.96 µM; in [5], 1.61 µM; in experiment [6], 2.27 µM; in experiment [8], 2.09 µM. Further, in experiment [9], the GI50 is 1.61 µM. For the same molecule, the TGI is 3.21 µM and 2.4 µM in experiment [1]; 3.17 µM in experiment [2]; 8.55 µM and 4.35 µM in [3]; 10.8 µM and 16.2 µM in experiment [4]; 3.98 µM and 8.04 µM in [5]; 4.4 µM and 3.1 µM in experiment [6]. The TGI in experiment [7] was 4.16 µM; in experiment [8] it was 7.29 µM and 13.3 µM; in experiment [9], 7.18 µM and 5.67 µM; in experiment [10], 3.08 µM and 2.79 µM.
As for `COc1cc(Nc2nccc(Nc3ccc4c(C)[nH]nc4c3)n2)cc(OC)c1OC`, the GI50 in experiment [1] was 1.29 µM; in [2], 1.23 µM; in experiment [3], 2.71 µM; in experiment [4], 4.91 µM; in experiment [5] it was 1.08 µM; in [6], 3.28 µM. The GI50 was 1.4 µM in experiment [7], 1.87 µM in experiment [8], 2.84 µM in experiment [9] and 0.666 µM in experiment [10]. In addition, the TGI in experiment [1] turned out to be 5.3 µM; in experiment [2], 5.09 µM; in experiment [3] it was 15.1 µM; in experiment [4] it was 19.9 µM; in [5], 8.34 µM; in experiment [6], 14.4 µM. Also, the TGI in experiment [7] was above 25 µM; in experiment [8], 9.19 µM; in [9] it was above 25 µM; in experiment [10] it was 3.09 µM.
In the case of `CCC1(CC)C(=O)OC(=O)C1(CC)CC`, the TGI in experiment [1], in [2], in [3], in experiment [4], in [5] and in experiment [6] was above 100 µM each time. In addition, the TGI in experiment [7], in experiment [8], in experiment [9] and in experiment [10] was above 100 µM each time.
Take `COc1ccc(CN(C)c2ccc(CO)c(Cl)c2)cc1`: the GI50 was 1.04 µM in experiment [1]; 8.37 µM in experiment [2]; 4.53 µM in experiment [3]; 34 µM in [4]; 7.58 µM in experiment [5]; 24.6 µM in experiment [6]. Besides, the GI50 in experiment [7] was 7.59 µM; in [8], 22 µM; in experiment [9] it was 21 µM; in experiment [10] it was 24.2 µM. For the same molecule, the TGI is 15 µM in experiment [1]; 38.7 µM in experiment [2]; above 100 µM in experiment [3]; above 100 µM in experiment [4]; above 100 µM in experiment [5]; above 100 µM in experiment [6]. The TGI was above 100 µM in experiment [7], above 91.6 µM in experiment [8], above 100 µM in experiment [9] and 95.4 µM in experiment [10].
`COc1ccc(/C=N\NC(=O)CN2CCN(c3cc4c(cc3F)c(=O)c(C(=O)N/N=C/c3ccc(OC)c(OC)c3)cn4C3CC3)CC2)cc1OC`: the GI50 in experiment [1] was 2.6 µM; in experiment [2], 2.72 µM; in experiment [3] it was 3.33 µM; in [4], 3.11 µM; in experiment [5], 2.74 µM; in [6], 2 µM. Further, the GI50 is 3.81 µM in experiment [7], 6.06 µM in [8], above 100 µM in [9] and 2.02 µM in experiment [10]. For the same molecule, the TGI in [1] amounted to 6.87 µM; in [2], 7.28 µM; in experiment [3], 16.8 µM; in experiment [4] it was 12.5 µM; in [5] it was 9.54 µM; in experiment [6], 3.86 µM. The TGI was above 100 µM in [7], above 100 µM in experiment [8], above 100 µM in [9] and 3.97 µM in [10].
